Key:
BTK = target: T1, BTK (Homo sapiens, UniProt Q06187); test: BTK degradation in TMD-8 cells (HTRF assay); assay type: cell-based; settings: 6 h treatment, IC50 (DC50) of BTK degradation
T1 construct: High control=Cell group with added DMSO and without compound, indicating microplate readings without BTK degradation; endogenous in cells; host or cells: TMD-8
Experimental: (§1) TMD-8 cells were treated with compounds diluted in 0.2% DMSO, dilution was done according to the following protocol: (1) making 500× stock solution in DMSO from 1 mM by 6-fold dilution, total 8 doses were included; (2) making 2× solution in cell culture medium by transferring 0.5 μl 500× stock solution into 125 μl medium; (3) adding 15 μl of 2× solution to cells for incubation of 6 h.
After 6 h treatment, 10 μl 4× lysis buffer was added to each well; the plate was sealed and incubated for 30 min at room temperature on a plate shaker; Once the cells was lysed, 16 μL of cell lysate were transferred to a PE 384-well HTRF detection plate; 4 μL of pre-mixed HTRF antibodies were added to each well; the plate was covered with a plate sealer, and then spinned at 1000 rpm for 1 min, then incubated overnight at room temperature; the results were read on BMG PheraStar with HTRF protocol (337 nm-665 nm-620 nm).
The IC50 (DC50) value of a compound can be obtained by fitting the following equation
(§2) wherein, X and Y are known values, and IC50, Hillslope, Top and Bottom are the parameters obtained by fitting with software. Y is the inhibition percentage (calculated from the equation), X is the concentration of the compound; IC50 is the concentration of the compound when the 50% inhibition is reached. The smaller the IC50 value is, the stronger the inhibitory ability of the compound is. Vice versa, the higher the IC50 value is, the weaker the ability the inhibitory ability of the compound is; Hillslope represents the slope of the fitted curve, generally around 1 *; Bottom represents the minimum value of the curve obtained by data fitting, which is generally 0%±20%; Top represents the maximum value of the curve obtained by data fitting, which is generally 100%±20%. The experimental data were fitted by calculating and analyzing with Dotmatics data analysis software.

HEK-293 cells = test: HEK-293 cytotoxicity detection (CellTiter-Glo); assay type: cell-based; settings: Homo sapiens; HEK-293 cells, 72 h incubation, CellTiter-Glo luminescence, IC50 of cell proliferation inhibition; read-out: HEK293
Experimental: as §1, with “HEK-293 cells” for “TMD-8 cells”, “from 5” for “from 1”, “by 4-fold” for “by 6-fold”, “0.5 ul” for “0.5 μl”, “adding 50” for “adding 15”, “of 72” for “of 6”
25 μl of the CellTiter-Glo®Reagent [(Promega) -Cat No. G7572] was added to each well in the 96-well plate. The contents were mixed for 2 minutes on an orbital shaker to induce cell lysis. The plate was then allowed to incubate at room temperature for 10 minutes to stabilize luminescent signal. Luminescence was recorded on BMG PheraStar with luminescence protocol.
The IC50 value of a compound can be obtained by fitting the following equation
as §2, with “Wherein,” for “wherein,”

T1 sequence (Q06187 whole entry): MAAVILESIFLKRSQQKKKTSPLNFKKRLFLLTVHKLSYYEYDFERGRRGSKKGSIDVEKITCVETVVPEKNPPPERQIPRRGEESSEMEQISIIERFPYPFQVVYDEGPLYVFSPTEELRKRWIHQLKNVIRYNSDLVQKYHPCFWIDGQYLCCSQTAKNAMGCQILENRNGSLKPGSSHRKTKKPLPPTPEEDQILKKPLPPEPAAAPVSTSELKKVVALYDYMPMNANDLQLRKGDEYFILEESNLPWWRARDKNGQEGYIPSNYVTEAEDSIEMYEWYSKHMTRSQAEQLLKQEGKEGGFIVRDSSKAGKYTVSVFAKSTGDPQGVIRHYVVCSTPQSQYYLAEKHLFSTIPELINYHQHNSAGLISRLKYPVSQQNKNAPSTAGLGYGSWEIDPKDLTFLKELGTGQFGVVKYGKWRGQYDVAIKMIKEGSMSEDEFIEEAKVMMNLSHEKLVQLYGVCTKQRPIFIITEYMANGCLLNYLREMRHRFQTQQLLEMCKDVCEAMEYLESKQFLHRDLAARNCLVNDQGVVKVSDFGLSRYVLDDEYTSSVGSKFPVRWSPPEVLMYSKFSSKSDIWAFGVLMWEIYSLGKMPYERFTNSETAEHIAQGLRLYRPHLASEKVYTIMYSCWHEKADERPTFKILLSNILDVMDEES

Row | DC50 (BTK) | SMILES | IC50 (HEK-293 cells)
1 | 0.309 nM | Cc1cc(N2CCC(CN3CCN(c4ccc5c(c4)[nH]c4ncnc(-c6ccc([C@@H](C)NC(=O)c7noc(C(C)(C)C)n7)c(C)c6F)c45)CC3)CC2)ccc1N1CCC(=O)NC1=O [Example 28, (R)-5-(tert-butyl)-N-(1-(4-(7-(4-((1-(4-(2,4-dioxotetrahydropyrimidin-1(2H)-yl)-3-methylphenyl)piperidin-4-yl)methyl)piperazin-1-yl)-9H-pyrimido[4,5-b]indol-4-yl)-3-fluoro-2-methylphenyl)ethyl)-1,2,4-oxadiazole-3-carboxamide] | > 10000 nM
2 | 3.16 nM | Cc1c([C@@H](C)NC(=O)c2noc(C(C)(C)C)n2)ccc(-c2ncnc3[nH]c4cc(N5CCN(C6CCN(c7ccc(C8CCC(=O)NC8=O)cc7)CC6)CC5)ccc4c23)c1F (stereo partly drawn) [Example 29, 5-(tert-butyl)-N-((1R)-1-(4-(7-(4-(1-(4-(2,6-dioxopiperidin-3-yl)phenyl)piperidin-4-yl)piperazin-1-yl)-9H-pyrimido[4,5-b]indol-4-yl)-3-fluoro-2-methylphenyl)ethyl)-1,2,4-oxadiazole-3-carboxamide] | > 10000 nM
3 | 4.55 nM | Cc1c([C@@H](C)NC(=O)c2noc(C(C)(C)C)n2)ccc(-c2ncnc3[nH]c4cc(N5CCN(CC6CC(c7ccc(C8CCC(=O)NC8=O)cc7)C6)CC5)ccc4c23)c1F (stereo partly drawn) [Example 30, 5-(tert-butyl)-N-((1R)-1-(4-(7-(4-((3-(4-(2,6-dioxopiperidin-3-yl)phenyl)cyclobutyl)methyl)piperazin-1-yl)-9H-pyrimido[4,5-b]indol-4-yl)-3-fluoro-2-methylphenyl)ethyl)-1,2,4-oxadiazole-3-carboxamide] | > 10000 nM
4 | 1.43 nM | Cc1c([C@@H](C)NC(=O)c2noc(C(C)(C)C)n2)ccc(-c2ncnc3[nH]c4cc(N5CCN(C6CC(c7ccc([C@@H]8CCC(=O)NC8=O)cc7)C6)CC5)ccc4c23)c1F (stereo partly drawn) [Example 31, 5-(tert-butyl)-N—((R)-1-(4-(7-(4-(3-(4-((S)-2,6-dioxopiperidin-3-yl)phenyl)cyclobutyl)piperazin-1-yl)-9H-pyrimido[4,5-b]indol-4-yl)-3-fluoro-2-methylphenyl)ethyl)-1,2,4-oxadiazole-3-carboxamide] | > 10000 nM
5 | 3.67 nM | Cc1c([C@@H](C)NC(=O)c2noc(C(C)(C)C)n2)ccc(-c2ncnc3[nH]c4cc(N5CCN(C6CC(c7ccc(N8CCC(=O)NC8=O)cc7)C6)CC5)ccc4c23)c1F (stereo partly drawn) [Example 33, (R)-5-(tert-butyl)-N-(1-(4-(7-(4-(3-(4-(2,4-dioxotetrahydropyrimidin-1(2H)-yl)phenyl)cyclobutyl)piperazin-1-yl)-9H-pyrimido[4,5-b]indol-4-yl)-3-fluoro-2-methylphenyl)ethyl)-1,2,4-oxadiazole-3-carboxamide] | > 10000 nM
6 | 1.23 nM | Cc1c([C@@H](C)NC(=O)c2noc(C(C)(C)C)n2)ccc(-c2ncnc3[nH]c4cc(N5CCN(C6CCN(c7cccc(C8CCC(=O)NC8=O)c7)CC6)CC5)ccc4c23)c1F (stereo partly drawn) [Example 34, 5-(tert-butyl)-N-((1R)-1-(4-(7-(4-(1-(3-(2,6-dioxopiperidin-3-yl)phenyl)piperidin-4-yl)piperazin-1-yl)-9H-pyrimido[4,5-b]indol-4-yl)-3-fluoro-2-methylphenyl)ethyl)-1,2,4-oxadiazole-3-carboxamide] | 1440 nM
7 | 0.15 nM | Cc1cc(-c2ncnc3[nH]c4cc(N5CCN(CC6CCN(c7ccc(N8CCC(=O)NC8=O)cc7)CC6)CC5)ccc4c23)ccc1[C@@H](C)NC(=O)c1nc(C2(C)CC2)no1 [Example 35, (R)—N-(1-(4-(7-(4-((1-(4-(2,4-dioxotetrahydropyrimidin-1(2H)-yl)phenyl)piperidin-4-yl)methyl)piperazin-1-yl)-9H-pyrimido[4,5-b]indol-4-yl)-2-methylphenyl)ethyl)-3-(1-methylcyclopropyl)-1,2,4-oxadiazole-5-carboxamide] | > 10000 nM
8 | 0.804 nM | Cc1c([C@@H](C)NC(=O)c2noc(C(C)(C)C)n2)ccc(-c2ncnc3[nH]c4cc(N5CCC(CN6CCC(c7ccc(C8CCC(=O)NC8=O)cc7)CC6)CC5)ccc4c23)c1F (stereo partly drawn) [Example 36, 5-(tert-butyl)-N-((1R)-1-(4-(7-(4-((4-(4-(2,6-dioxopiperidin-3-yl)phenyl)piperidin-1-yl)methyl)piperidin-1-yl)-9H-pyrimido[4,5-b]indol-4-yl)-3-fluoro-2-methylphenyl)ethyl)-1,2,4-oxadiazole-3-carboxamide] | 3410 nM
9 | 57.6 nM | CC(C)(C)c1noc(C(=O)N[C@@H]2CCc3cc(-c4ncnc5[nH]c6cc(N7CCN(CC8CCN(c9ccc(N%10CCC(=O)NC%10=O)cc9)CC8)CC7)ccc6c45)ccc32)n1 [Example 37, (R)-3-(tert-butyl)-N-(5-(7-(4-((1-(4-(2,4-dioxotetrahydropyrimidin-1(2H)-yl)phenyl)piperidin-4-yl)methyl)piperazin-1-yl)-9H-pyrimido[4,5-b]indol-4-yl)-2,3-dihydro-1H-inden-1-yl)-1,2,4-oxadiazole-5-carboxamide] | > 10000 nM
10 | 0.395 nM | Cc1cc(-c2ncnc3[nH]c4cc(C5CCN(CC6CCN(c7ccc(N8CCC(=O)NC8=O)cc7)CC6)CC5)cnc4c23)ccc1[C@@H](C)NC(=O)c1nc(C(C)(C)C)no1 [Example 38, (R)-3-(tert-butyl)-N-(1-(4-(7-(1-((1-(4-(2,4-dioxotetrahydropyrimidin-1(2H)-yl)phenyl)piperidin-4-yl)methyl)piperidin-4-yl)-9H-pyrido[2′,3′:4,5]pyrrolo[2,3-d]pyrimidin-4-yl)-2-methylphenyl)ethyl)-1,2,4-oxadiazole-5-carboxamide] | 3460 nM
11 | 0.725 nM | Cc1cc(-c2ncnc3[nH]c4nc(C5CCN(CC6CCN(c7ccc(N8CCC(=O)NC8=O)cc7)CC6)CC5)ccc4c23)ccc1[C@@H](C)NC(=O)c1nc(C(C)(C)C)no1 [Example 39, (R)-3-(tert-butyl)-N-(1-(4-(7-(1-((1-(4-(2,4-dioxotetrahydropyrimidin-1(2H)-yl)phenyl)piperidin-4-yl)methyl)piperidin-4-yl)-9H-pyrido[3′,2′:4,5]pyrrolo[2,3-d]pyrimidin-4-yl)-2-methylphenyl)ethyl)-1,2,4-oxadiazole-5-carboxamide] | 4020 nM
12 | 2.12 nM | Cc1cc2c(cc1N1CCN(CC3CCN(c4ccc(N5CCC(=O)NC5=O)cc4)CC3)CC1)[nH]c1ncnc(-c3cc(CO)c([C@@H](C)NC(=O)c4nc(C(C)(C)C)no4)cc3F)c12 [Example 40, (R)-3-(tert-butyl)-N-(1-(4-(7-(4-((1-(4-(2,4-dioxotetrahydropyrimidin-1(2H)-yl)phenyl)piperidin-4-yl)methyl)piperazin-1-yl)-6-methyl-9H-pyrimido[4,5-b]indol-4-yl)-5-fluoro-2-(hydroxymethyl)phenyl)ethyl)-1,2,4-oxadiazole-5-carboxamide] | > 10000 nM
13 | 1.85 nM | Cc1cc(-c2ncnc3[nH]c4cc(C5CCN(C6CC(c7ccc(C8CCC(=O)NC8=O)cc7)C6)CC5)ncc4c23)ccc1[C@@H](C)NC(=O)c1nc(C(C)(C)C)no1 (stereo partly drawn) [Example 41, 3-(tert-butyl)-N-((1R)-1-(4-(7-(1-(3-(4-(2,6-dioxopiperidin-3-yl)phenyl)cyclobutyl)piperidin-4-yl)-9H-pyrido[3′,4′:4,5]pyrrolo[2,3-d]pyrimidin-4-yl)-2-methylphenyl)ethyl)-1,2,4-oxadiazole-5-carboxamide] | 3350 nM
